Test results from publication PMC9920413, “New Bicyclic Pyridine-Based Hybrids Linked to the 1,2,3-Triazole Unit: Synthesis via Click Reaction and Evaluation of Neurotropic Activity and Molecular Docking” (Molecules, 2023).

What was measured:
[1] = in vivo; details: outbred, mouse, in vivo; mice, dead animals after 24 h
Method: (§1) Adverse neurotoxic (muscle relaxant) effects of compounds were studied at doses of 50 to 500 mg/kg when administered intraperitoneally, as well as reference drugs in effect at anticonvulsant doses. Myorelaxation was investigated with the test of a “rotating rod” in mice. To this end, mice were planted on a metal rod with a corrugated rubber coating, which rotated at a speed of 5 revolutions per minute. The number of animals that cnot stay on it for 2 min was determined. To determine the ED50, neurotoxic TD50, and LD50, the statistical method of penetration by Litchfield and Wilcoxon was used.

[2] = tested on: rats; experiment: Open field test; format: in vivo; details: 50 mg/kg i.p.; for Cells Examination, amount (absolute data during 5 min): control 2.4 ± 0.67; for Vertical Displacement, amount (absolute data during 5 min): control 7.0 ± 2.14; for Horizontal Displacement, amount (absolute data during 5 min): control 21.6 ± 2.25
Method: Open field test. The research-motor behavior of rats was studied on a modified “open field” model. For this purpose, an installation was used, the bottom of which is divided into squares with holes (cells). Experiments were performed in the daytime with natural light. Within 5 min of the experiment, the indicators of sedative and activating behavior were determined, namely the number of horizontal movements, standing on the hind legs (vertical movements), and sniffing of the cells. The number of animals on this model was eight for each compound, control, and reference drug.

[3] = tested on: mice; experiment: Forced swimming test; details: 50 mg/kg, 6 min; for Total Time of Immobilization: control 42.0 ± 7.24; for Total Time of Active Swimming: control 318.0 ± 8.36;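 as to all read-outs here: mice made to swim in a water-filled glass vessel under natural light, with durations of active swimming and immobility recorded across the 6 min session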
Method: Forced swimming test. To assess “despair and depression”, the “compelling swimming” model was used. Experimental animals were forced to swim in a glass container (height 22 cm, diameter 14 cm), filled 1/3 with water. […] The latent period of immobilization, the total duration of active swimming and immobilization are fixed at 6 min (the experiments were conducted under natural light).

[4] = tested on: pentylenetetrazole (PTZ)-induced convulsions; experiment: Antagonism to pentylenetetrazole (PTZ) convulsions; format: in vivo; details: for ED50: Mus musculus, mice, i.p. 45 min before PTZ 90 mg/kg s.c., confidence limits in brackets, p = 0.05, read-out: ED50 (by PTZ antagonism); for TI: therapeutic index TI = LD50/ED50
Method: (§2) The study of the anticonvulsant activity of hybrids 7a–u was assessed by evaluating the antagonism to pentylenetetrazole (PTZ), thiosemicarbazide convulsive seizures, and maximal electroshock-induced seizures (MES). The PTZ-induced test is considered an experimental model for the clonic component of epilepsy seizures and the prognostic anxiolytic activity of the compounds. PTZ is a common convulsive agent used in animal models to investigate the mechanisms of seizures. The model of thiosemicarbazide (TSC) seizures (affecting the exchange of GABA) causes clonic seizures similar to pentylenetetrazole ones. The MES test is used as an animal model for the generalization of tonic seizures in epilepsy. The neurotoxicity and side effects of the compounds (movement coordination disorder, myorelaxation, and ataxia) were also studied on mice with the “rotating rod”[29] test.
The anticonvulsant effect of the newly synthesized compounds was investigated by tests comprising pentylenetetrazole, thiosemicarbazide convulsions, and maximal electroshock (MES). Outbred mice (weight 18–22 g) were used for the study. […] Each animal is placed into an individual plastic cage for observation lasting 1 h. Seizures and clonic convulsions were recorded. […] The control animals were administered as an emulsifier. Every dose of each test compound was studied in six animals.
as §1

[5] = Rotating rod test (neurotoxicity, myorelaxation); format: in vivo; details: outbred, mouse, in vivo, ip, mice, myorelaxation in 50% of animals
Method: as §2, §1

[6] = tested on: thiosemicarbazide (TSC)-induced convulsions; experiment: Thiosemicarbazide (TSC) seizures; format: in vivo, mice; details: mice; for response vs control in vivo at 100 mg/kg: Mus musculus, ip, compound 100 mg/kg i.p., relative to control = 1.0, read-out: Latency of Convulsions, Induced by TSC, I (index of latent period of TSC seizures); for Latency of Convulsions, Induced by TSC, M ± M: compound 100 mg/kg i.p. 45 min before TSC 18 mg/kg s.c.
Method: as §2
Thiosemicarbazide, an antimetabolite of GABA inhibitor (glutamic acid decarboxylase) in the brain, is administered subcutaneously to mice at a dose of 18 mg/kg as a 0.5% solution, which causes clonic convulsions in animals. Anti-thiosemicarbazide activity was evaluated based on the latency time of the onset of seizures. Compounds were administered intraperitoneally at doses of 100 mg/kg in suspension with carboxymethylcellulose and Tween-80 45 min before administration of thiosemicarbazide.

[7] = tested on: mouse; experiment: Elevated plus maze (EPM) test; format: in vivo; details: 50 mg/kg i.p., 5 min; for Time Spent in the Open Arms: control 2.6 ± 1.6; for Number of Entries into the Closed Arms: control 9.4 ± 1.6; for Time Spent in the Center: control 28.2 ± 3.12; for Time Spent in Closed Arms: control 269.2 ± 10.4
Description: Elevated plus maze—EPM test. Anti-anxiety and sedative effects were studied on mouse a model of the “elevated plus maze”. The labyrinth is a cruciform machine raised above the floor, with a pair of open and closed sleeves opposed to each other. Normal animals prefer to spend most of their time in the closed (dark) sleeves of the labyrinth. The anxiolytic effect of the compounds was estimated by the increase in the number of entries into open (light) sleeves and the time spent in them without increasing the total motor activity. This records the time spent in the closed sleeve and the number of attempts to enter the installation center. In the above model, the test compounds and the reference drug were injected intraperitoneally before the experiments. The control animals were administered as an emulsifier. Results were processed statistically (p < 0.05).

[8] = tested on: rats; experiment: Electroshock retrograde amnesia, conditioned response of passive avoidance (CRPA); format: in vivo; details: 1000 mg/kg, study for 5 min
Method: Test for learning and memory. The antiamnesic properties of the compounds were studied using an electroshock amnesia model modified by J. Bures, O. Buresova. In rats, a conditioned passive avoidance reaction (CRPA) to a dark-light setting was developed, while the training of the animals with CRPA was recorded. The residence times in the light and dark compartments were recorded for 5 min (300 s). Then, in the dark compartment, the animal received a single current shock (0.4 mA) through the electrode floor (training). To obtain amnesia, a maximum electroconvulsive seizure is induced in animals (conducting a maximum electric current of 50 Hz for 0.2 s through corneal electrodes). Conducting an electric shock immediately after training causes the erasure of the memory trace. The test for reproduction is carried out 24 h after training—after the development of CRPA. During this period, the control animals forget the training and prefer to be in the dark part of the chamber. An increase in the time spent by rats in the light compartment compared to the control on the second day indicates the presence of antiamnestic properties of the compounds.

| SMILES | LD50 at 24 h [1] [mg/kg] | Cells Examination, amount (absolute data during 5 min) [2] | Vertical Displacement, amount (absolute data during 5 min) [2] | Horizontal Displacement, amount (absolute data during 5 min) [2] | Total Time of Immobilization [3] [s] | Total Time of Active Swimming [3] [s] | ED50 [4] [mg/kg] | TI [4] | TD50 at 2 min [5] [mg/kg] | response vs control in vivo at 100 mg/kg [6] [%] | Latency of Convulsions, Induced by TSC, M ± M [6] [min] | Time Spent in the Open Arms [7] [s] | Number of Entries into the Closed Arms [7] | Time Spent in the Center [7] [s] | Time Spent in Closed Arms [7] [s] | The Time Spent in the Light Chamber When Playing CRPA + MESH after 24 h, Second Day [8] [s] | The Time Spent in the Light Chamber during the Training of the CRPA, First Day [8] [s] |
| --- | --- | --- | --- | --- | --- | --- | --- | --- | --- | --- | --- | --- | --- | --- | --- | --- | --- |
| CCCc1nc(N2CCN(C(=O)Cn3cc(COc4nc(C(C)C)c5c(c4C#N)CCC5)nn3)CC2)c(C#N)c2c1COC(C)(C)C2 [7c, 6-{4-[(4-{[(4-Cyano-1-isopropyl-6,7-dihydro-5H-cyclopenta[c]pyridin-3-yl)oxy]methyl}-1H-1,2,3-triazol-1-yl)acetyl]piperazin-1-yl}-3,3-dimethyl-8-propyl-3,4-dihydro-1H-pyrano [3,4-c]pyridine-5-carbonitrile] | 650 | 4.2 ± 0.56 | 6.2 ± 1.03 | 57.2 ± 12.85 | 10.0 ± 4.1 | 350.0 ± 11.62 | 35 | 18.6 | > 500 | 250 | 25.0 ± 4.1 | 10.6 ± 2.1 | 2.6 ± 1.4 | 45.4 ± 4.7 | 244.0 ± 10.67 |  |  |
| CCc1nc(N2CCN(C(=O)Cn3cc(COc4nc(C(C)C)c5c(c4C#N)CCCC5)nn3)CC2)c(C#N)c2c1COC(C)(C)C2 [7h] | 720 | 6.8 ± 3.12 | 6.0 ± 0.89 | 63.8 ± 14.02 | 2.0 ± 0.8 | 358.0 ± 8.2 | 27 | 26.7 | > 500 | 150 | 15.2 ± 1.2 | 30.0 ± 2.4 | 4.8 ± 1.34 | 28.4 ± 2.38 | 246.6 ± 21.9 |  |  |
| CCCc1nc(N2CCN(C(=O)Cn3cc(COc4nc(C)c5c(c4C#N)CC(C)(C)OC5)nn3)CC2)c(C#N)c2c1COC(C)(C)C2 [7o] | 800 | 8.6 ± 3.25 | 9.6 ± 3.89 | 73.0 ± 13.37 | 2.0 ± 0.4 | 358.0 ± 12.0 | 28 | 28.6 | > 500 | 304 | 30.4 ± 1.1 | 10.0 ± 2.78 | 5.8 ± 1.03 | 61.0 ± 3.68 | 229.0 ± 11.2 |  |  |
| CCc1nc(OCc2cn(CC(=O)N3CCN(c4nc(CC)c5c(c4C#N)CC(C)(C)OC5)CC3)nn2)c(C#N)c2c1COC(C)(C)C2 [7q, 6-{4-[(4-{[(5-Cyano-8-ethyl-3,3-dimethyl-3,4-dihydro-1H-pyrano [3,4-c]pyridin-6-yl)oxy]methyl}-1H-1,2,3-triazol-1-yl)acetyl]piperazin-1-yl}-8-ethyl-3,3-dimethyl-3,4-dihydro-1H-pyrano [3,4-c]pyridine-5-carbonitrile] | 790 | 7.4 ± 2.42 | 8.8 ± 1.61 | 60.2 ± 4.61 | 24.0 ± 2.9 | 336.0 ± 25.3 | 42 | 18.8 | > 500 | 220 | 22.0 ± 2.2 | 24.0 ± 2.5 | 5.0 ± 2.19 | 50.8 ± 3.4 | 225.2 ± 13.87 |  |  |
| CCCc1nc(N2CCN(C(=O)Cn3cc(COc4nc(CC)c5c(c4C#N)CC(C)(C)OC5)nn3)CC2)c(C#N)c2c1COC(C)(C)C2 [7r, 6-[(1-{2-[4-(5-Cyano-3,3-dimethyl-8-propyl-3,4-dihydro-1H-pyrano [3,4-c]pyridin-6-yl)piperazin-1-yl]-2-oxoethyl}-1H-1,2,3-triazol-4-yl)methoxy]-8-ethyl-3,3-dimethyl-3,4-dihydro-1H-pyrano [3,4-c]pyridine-5-carbonitrile] | 710 | 4.4 ± 1.89 | 2.2 ± 1.36 | 30.0 ± 2.48 | 36.0 ± 5.55 | 324.0 ± 18.55 | 26 | 27.3 | > 500 | 394 | 39.4 ± 1.11 | 7.0 ± 2.59 | 3.4 ± 1.59 | 83.0 ± 5.1 | 210.4 ± 10.3 |  |  |
| CCCc1nc(OCc2cn(CC(=O)N3CCN(c4nc(CCC)c5c(c4C#N)CC(C)(C)OC5)CC3)nn2)c(C#N)c2c1COC(C)(C)C2 [7u, 6-{4-[(4-{[(5-Cyano-3,3-dimethyl-8-propyl-3,4-dihydro-1H-pyrano [3,4-c]pyridin-6-yl)oxy]methyl}-1H-1,2,3-triazol-1-yl)acetyl]piperazin-1-yl}-3,3-dimethyl-8-propyl-3,4-dihydro-1H-pyrano [3,4-c]pyridine-5-carbonitrile] | 680 | 2.2 ± 1.03 | 3.6 ± 0.67 | 41.8 ± 6.12 | 84.0 ± 12.5 | 276.0 ± 26.0 | 32 | 21.3 | > 500 | 438 | 43.8 ± 1.03 | 20.0 ± 3.12 | 4.4 ± 2.1 | 36.2 ± 2.38 | 243.8 ± 20.7 |  |  |
| NC(=O)CN1CCCC1=O [Piracetam, piracetam, reference compound] |  |  |  |  |  |  |  |  |  |  |  |  |  |  |  | 243.7 ± 8.4 | 158.0 ± 5.9 |
